Assay results: patent publication US20110312996A1, “NOVEL INHIBITORS OF HEPATITIS C VIRUS REPLICATION” (priority 2010, published 2011)

What follows are compounds tested on Huh7 cells containing HCV replicons with an integrated luciferase reporter gene (assay: HCV Replicon Assay (luciferase reporter)). Settings: Hepatitis C virus, Huh-7, 48 h, read-out: EC50 nM.
Format: cell-based
Protocol: Huh7 cells containing HCV replicons with an integrated luciferase reporter gene are maintained at 37° C. in 5% CO2 in Dulbecco's modified Eagle's medium (DMEM; Mediatech, Herndon, Va.) containing 10% heat-inactivated fetal bovine serum (FBS; Mediatech, Herndon, Va.), 2 mM L-glutamine (Cambrex Bioscience, Walkersville, Md.), 1% non essential amino acids (Lonza, Walkersville, Md.), 50 IU/mL penicillin (Mediatech, Herndon, Va.), […] streptomycin (Mediatech, Herndon, Va.) and 0.5 mg/mL G418 (Promega, Madison, Wis.). Cells are sub-divided 1:3 or 4 every 2-3 days.
24 h prior to the assay, Huh7 cells containing sub-genomic HCV replicons are collected, counted, and plated in Nunclon 96-well tissue culture plates (ThermoFisher, Rochester, N.Y.) at 5000 cells/well in […] standard maintenance medium (above) and incubated in the conditions above. To initiate the assay, culture medium is removed, and replaced with […] maintenance media lacking G418. Test compounds are serially diluted three-fold in dimethyl sulfoxide (DMSO) in two duplicate rows for each EC50 determination. These compound solutions are diluted ten-fold in DMEM lacking serum and G418. […] of these compound solutions in media are added to duplicate tissue culture plates. The final volume is 100 μL with a DMSO concentration of 1%. Compound concentrations are adjusted to appropriately define a dose response curve. Typical dilution series range from […] to 1.69 nM final concentrations to 1 nM to 16.9 fM final. Plates are incubated at 37° C. for approximately 48 hr.
Following incubation, media is removed from one of the two duplicate plates and replicon-reporter luciferase activity is measured using a Bright-Glo luciferase assay kit (Promega, Madison, Wis.) according to manufacturer's instructions. Semi-log plots of luciferase activity versus the logarithm of compound concentration are fit to a 4-parameter logistic function using XLfit software (IDBS Inc., Guildford, UK) to determine EC50.

SMILES	EC50
COC(=O)N[C@H](C(=O)N1CCC[C@H]1C(=O)Nc1ccc2cc(-c3ccccc3)ccc2c1)C(C)C [Compound 502]	> 100 nM

Same assay, conditions: Hepatitis C virus, Huh-7; Huh7 sub-genomic HCV replicon, luciferase activity, approximately 48 hr incubation; read-out: EC50

SMILES	EC50
COC(=O)N[C@H](C(=O)N1CCC[C@H]1c1nc(-c2ccc(-c3ccc(-c4c[nH]c([C@@H]5CCCN5C(=O)[C@@H](NC(=O)OC)c5ccc(F)cc5)n4)cc3)cc2)c[nH]1)c1ccc(F)cc1 [Compound 421]	< 10 nM
COC(=O)N[C@H](C(=O)N1CCC[C@H]1c1nc2ccc(-c3ccc(-c4ccc5nc([C@@H]6CCCN6C(=O)[C@@H](NC(=O)OC)c6ccc(F)cc6)[nH]c5c4)cc3)cc2[nH]1)c1ccc(F)cc1 [Compound 422]	< 10 nM
COC(=O)N[C@H](C(=O)N1CCC[C@H]1c1nc(-c2ccc(-c3ccc(-c4c[nH]c([C@@H]5CCCN5C(=O)[C@@H](NC(=O)OC)C(C(F)(F)F)C(F)(F)F)n4)cc3)cc2)c[nH]1)C(C(F)(F)F)C(F)(F)F [Compound 423]	< 10 nM
COC(=O)N[C@H](C(=O)N1CCC[C@H]1c1nc(-c2ccc(-c3ccc(-c4c[nH]c([C@@H]5CCCN5C(=O)[C@@H](NC(=O)OC)c5cccc(F)c5)n4)cc3)cc2)c[nH]1)c1cccc(F)c1 [Compound 424]	< 10 nM
COC(=O)N[C@H](C(=O)N1CCC[C@H]1C(=O)OCC(=O)c1ccc(N2CCN(Cc3ccccc3)CC2)cc1)C(C)C [Compound 501]	> 100 nM
COC(=O)N[C@H](C(=O)N1CCC[C@H]1c1nc(-c2ccccc2)c[nH]1)C(C)C [Compound 504]	> 100 nM
COc1ccc2cc(-c3c[nH]c([C@@H]4CCCN4C(=O)OC(C)(C)C)n3)ccc2c1 [Compound 505]	> 100 nM
COC(=O)N[C@H](C(=O)N1CCC[C@H]1C(=O)NCc1ccc(-c2ccc(-c3c[nH]c([C@@H]4CCCN4C(=O)[C@@H](NC(=O)OC)C(C)C)n3)cc2)cc1)C(C)C [Compound 506]	< 10 nM
COC(=O)N[C@H](C(=O)N1CCC[C@H]1c1nc(-c2ccc(-c3ccc(-c4c[nH]c([C@@H]5CCCN5C(=O)[C@@H](NC(=O)OC)C(C)C)n4)c4c3CCC4)c3c2CCC3)c[nH]1)C(C)C [Compound 601]	< 10 nM
COC(=O)N[C@H](C(=O)N1CCC[C@H]1c1nc(-c2ccc(-c3ccc(-c4c[nH]c([C@@H]5CCCN5C(=O)[C@@H](NC(=O)OC)C(C)C)n4)c4ocnc34)c3ncoc23)c[nH]1)C(C)C [Compound 602]	< 10 nM
COC(=O)NC(C(=O)N1CCC[C@H]1c1nc(-c2ccc(-c3ccc(-c4c[nH]c(N5CCCN5C(=O)[C@@H](NC(=O)OC)C(C)C)n4)c4scnc34)c3ncsc23)c[nH]1)C(C)C (stereo partly drawn) [Compound 603]	< 10 nM
COC(=O)N[C@H](C(=O)N1CCC[C@@]1(C)c1nc(-c2ccc(-c3ccc(-c4c[nH]c([C@]5(C)CCCN5C(=O)[C@@H](NC(=O)OC)C(C)C)n4)c4c3CCC4)c3c2CCC3)c[nH]1)C(C)C [Compound 604]	< 10 nM
COC(=O)N[C@H](C(=O)N1CCC[C@H]1c1nc(-c2ccc(-c3ccc(-c4c[nH]c([C@]5(C)CCCN5C(=O)[C@@H](NC(=O)OC)C(C)C)n4)c4c3CCC4)c3c2CCC3)c[nH]1)C(C)C [Compound 605]	< 10 nM
COC(=O)N[C@H]1CC[C@H]2CC[C@@H](c3nc(-c4ccc(-c5ccc(-c6c[nH]c([C@@H]7CC[C@@H]8CC[C@H](NC(=O)OC)C(=O)N87)n6)cc5)cc4)c[nH]3)N2C1=O [Compound 801]	> 100 nM
COC(=O)N[C@H]1CC[C@H]2CC[C@@H](C(=O)Nc3ccc(/C=C/c4ccc(NC(=O)[C@@H]5CC[C@@H]6CC[C@H](NC(=O)OC)C(=O)N65)cc4)cc3)N2C1=O [Compound 802]	> 100 nM
COC(=O)N[C@H]1CC[C@H]2CC[C@@H](c3nc(-c4ccc(-c5ccc(-c6c[nH]c([C@@H]7CCCN7C(=O)[C@@H](NC(=O)OC)C(C)C)n6)cc5)cc4)c[nH]3)N2C1=O [Compound 803]	< 10 nM
COC(=O)N[C@H]1CC[C@@H]2CC[C@@H](c3nc(-c4ccc(-c5ccc(-c6c[nH]c([C@@H]7CCCN7C(=O)[C@@H](NC(=O)OC)C(C)C)n6)cc5)cc4)c[nH]3)N2C1=O [Compound 804]	< 10 nM
COC(=O)N[C@H]1CC[C@H]2CC[C@@H](c3nc(-c4ccc(-c5ccc(-c6c[nH]c([C@]7(C)CCCN7C(=O)[C@@H](NC(=O)OC)C(C)C)n6)cc5)cc4)c[nH]3)N2C1=O [Compound 805]	10 to 100 nM
COC(=O)N[C@H]1CCC[C@@H]2CC[C@@H](c3nc(-c4ccc(-c5ccc(-c6c[nH]c([C@@H]7CCCC7C(=O)[C@@H](NC(=O)OC)C(C)C)n6)cc5)cc4)c[nH]3)N2C1=O (stereo partly drawn) [Compound 806]	< 10 nM
COC(=O)N[C@H]1CCC[C@H]2CC[C@@H](c3nc(-c4ccc(-c5ccc(-c6c[nH]c([C@@H]7CCCN7C(=O)[C@@H](NC(=O)OC)C(C)C)n6)cc5)cc4)c[nH]3)N2C1=O [Compound 807]	< 10 nM
